Assay results as given in article PMC5961012 (Journal of Antimicrobial Chemotherapy, 2018).
pKd: −log10 of the molar value.

Target: T1, AceR (Acinetobacter baumannii, UniProt P0DUU5)
T1 sequence (P0DUU5 84-297): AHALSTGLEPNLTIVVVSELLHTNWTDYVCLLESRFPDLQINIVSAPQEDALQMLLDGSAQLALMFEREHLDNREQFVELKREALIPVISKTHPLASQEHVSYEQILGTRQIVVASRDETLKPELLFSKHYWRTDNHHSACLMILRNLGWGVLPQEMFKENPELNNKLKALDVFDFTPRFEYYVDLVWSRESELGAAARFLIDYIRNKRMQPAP
Assay: SPR
Assay type: binding

SMILES: [H]/N=C(\N/C(=N/[H])NCCCCCCNC(=N)NC(=N)Nc1ccc(Cl)cc1)Nc1ccc(Cl)cc1 [chlorhexidine]
- pKd: 4.21
